For data set [1], the system named is M. avium complex CIT19/06. As to the kind of experiment: In vitro antimycobacterial evaluation (alamarBlue). The settings on record: Mycobacterium avium, 120 h, read-out: MIC/IC90 M. avium complex. Format: cell-based. Background: Resazurin is reduced to fluorescent resorufin, in cell work by metabolically active cells.
Data set [2] relates to M. avium paratuberculosis ATCC19698. As to the kind of experiment: In vitro antimycobacterial evaluation (alamarBlue). Format: cell-based. To be noted: Mycobacterium avium, 264 h, read-out: MIC/IC90 M.avium paratuberculosis.
Another data set concerns M. kansasii CIT11/06. The data set can be described thus: In vitro antimycobacterial evaluation (alamarBlue). To be noted: Mycobacterium kansasii, read-out: MIC/IC90 M. kansasii. The class given is cell-based.
Data set [3] relates to photosynthetic electron transport (PET) in spinach chloroplasts. As to the kind of experiment: Inhibition of photosynthetic electron transport (PET) in spinach chloroplasts. Format: biochemical, Spinacia oleracea L. To be noted: photoreduction of DCPIP, pH 7.2. The method, then: Chloroplasts were prepared from spinach (Spinacia oleracea L.) according to Masarovicova and Kralova. The inhibition of photosynthetic electron transport (PET) in spinach chloroplasts was determined spectrophotometrically (Genesys 6, Thermo Scientific, USA), using an artificial electron acceptor 2,6-dichlorophenol-indophenol (DCIPP) according to Kralova et al., and the rate of photosynthetic electron transport was monitored as a photoreduction of DCPIP. The measurements were carried out in phosphate buffer (0.02 mol/L, pH 7.2) containing sucrose (0.4 mol/L), MgCl2 (0.005 mol/L) and NaCl (0.015 mol/L). The chlorophyll content was 30 mg/L in these experiments and the samples were irradiated (~100 W/m^2 with 10 cm distance) with a halogen lamp (250 W) using a 4 cm water filter to prevent warming of the samples (suspension temperature 22 °C). The studied compounds were dissolved in DMSO due to their limited water solubility. […] The inhibitory efficiency of the studied compounds was expressed by IC50 values, i.e., by molar concentration of the compounds causing 50% decrease in the oxygen evolution rate relative to the untreated control.

Data set [4] deals with human monocytic leukemia THP-1 cells. The settings on record: for lethal effect on THP-1 cells at the highest dose achieved in the medium: 100 µmol/L; for LD50: human, 24 h.
The test system of data set [5] is M. tuberculosis and other atypical mycobacterial strains. The data set can be described thus: In vitro antimycobacterial screening, results in words. The settings on record: low solubility, precipitation in test media. The class given is cell-based, Mycobacterium sp.
In data set [6] the test system is human monocytic leukemia THP-1 cells. To be noted: assessed in this line formerly; cited from earlier work.

In brackets after ≈: the same amount, converted by molar mass. Where two headings read alike, the source gives them in different places.

`CC(C)NC(=O)c1ccc2ccccc2n1` [Compound 1, N-Isopropylquinoline-2-carboxamide] registered a melting point of 75 to 76 °C. The MIC in data set [1] (CIT19/06, 5 days) turned out to be 583 µM (≈ 125 µg/mL). Besides, the MIC in data set [2] (ATCC19698, 11 days) came to 1170 µM (≈ 250 µg/mL). Besides, the MIC in the data set with M. kansasii CIT11/06 (120 h, CIT11/06, 5 days) came to 1170 µM (≈ 250 µg/mL).
In data set [3], `CCCCCCCCCCCCNC(=O)c1ccc2ccccc2n1` [Compound 2, N-Dodecylquinoline-2-carboxamide] showed a concentration for half-maximal inhibition (IC50) of 573 µM. Moreover, the MIC in data set [1] worked out at 367 µM (≈ 125 µg/mL); in data set [2] (ATCC19698, 11 days), 734 µM (≈ 250 µg/mL); in the data set with M. kansasii CIT11/06 (120 h, CIT11/06, 5 days), 734 µM (≈ 250 µg/mL).
Turning to `O=C(c1ccc2ccccc2n1)N1CCCC1` [Compound 3, 2-(Pyrrolidin-1-ylcarbonyl)quinoline], the concentration for half-maximal inhibition (IC50) in data set [3] came out at 1600 µM. In addition, the MIC in data set [1] amounted to 552 µM (≈ 125 µg/mL); in data set [2] (ATCC19698, 11 days) it was 111 µM (≈ 25.1 µg/mL); with M. kansasii CIT11/06 (120 h, CIT11/06, 5 days), 111 µM (≈ 25.1 µg/mL). For the same compound, in data set [4], the “lethal effect on THP-1 cells at the highest dose achieved in the medium” value (“lethal effect on THP-1 cells” for short) is reported as “did not lead to the 100% lethal effect”. Further, the LD50 in data set [4] was greater than 100 µmol/L.
Consider `O=C(NC1CCCC1)c1ccc2ccccc2n1` [Compound 5, N-Cyclopentylquinoline-2-carboxamide], for which the melting point was 63 to 64 °C. The same compound returned an IC50 in data set [3] of 762 µM. The MIC in data set [1] stood at 491 µM (≈ 118 µg/mL). In data set [2], the MIC was 491 µM (≈ 118 µg/mL). The MIC in the data set with M. kansasii CIT11/06 (CIT11/06, 120 h) came to 491 µM (≈ 118 µg/mL).
Regarding `O=C(NC1CCCCC1)c1ccc2ccccc2n1` [Compound 6, N-Cyclohexylquinoline-2-carboxamide], the melting point lay in the range of 98 to 99 °C. Moreover, the half-maximal inhibitory concentration (IC50) in data set [3] came to 1040 µM. For the same compound, in data set [1] (CIT19/06, 5 days), the MIC worked out at 520 µM (≈ 132 µg/mL). For the same compound, the MIC in data set [2] (ATCC19698, 11 days) is 520 µM (≈ 132 µg/mL). Further, the MIC with M. kansasii CIT11/06 (120 h, CIT11/06, 5 days) came to 520 µM (≈ 132 µg/mL).
As for `O=C(NC1CCCCCC1)c1ccc2ccccc2n1` [Compound 7, N-Cycloheptylquinoline-2-carboxamide], the MIC in data set [1] (CIT19/06, 5 days) stood at 466 µM (≈ 125 µg/mL); in data set [2] (ATCC19698, 11 days) it was 223 µM (≈ 59.8 µg/mL); with M. kansasii CIT11/06 (120 h, CIT11/06, 5 days), 466 µM (≈ 125 µg/mL). Further, the LD50 in data set [4] is 62 ± 4.5 µmol/L.
`O=C(NC1CCCCCCC1)c1ccc2ccccc2n1` [Compound 8, N-Cyclooctylquinoline-2-carboxamide]: the melting point fell in the range of 72 to 73 °C. Moreover, in data set [3], the midpoint of inhibition, the IC50, lay at 415 µM. Further, the “antimycobacterial activity” value in data set [5] is given as “no activity”.
`O=C(Nc1ccccc1)c1ccc2ccccc2n1` [Compound 9, N-Phenylquinoline-2-carboxamide] yielded an IC50 in data set [3] of 85.1 µM. In data set [5], the “antimycobacterial activity” value is given as “non-active”.
Take `O=C(NCCc1ccccc1)c1ccc2ccccc2n1` [Compound 11, N-(2-Phenylethyl)quinoline-2-carboxamide]: the MIC in data set [1] (CIT19/06, 5 days) is 452 µM (≈ 125 µg/mL); in data set [2] (ATCC19698, 11 days), 905 µM (≈ 250 µg/mL); in the data set on M. kansasii CIT11/06 (120 h, CIT11/06, 5 days), 452 µM (≈ 125 µg/mL). Moreover, in data set [4], the “lethal effect on THP-1 cells” value was “did not lead to the 100% lethal effect”. The compound further had an LD50 in data set [4] greater than 100 µmol/L.
Regarding `Cc1cccc(NC(=O)c2ccc3ccccc3n2)c1` [Compound 14b, N-(3-Methylphenyl)quinoline-2-carboxamide], the melting point is 82 to 83 °C. Also, the IC50 in data set [3] came to 101 µM. Further, in data set [1], the MIC came to 469 µM (≈ 123 µg/mL). In addition, in data set [2] (ATCC19698, 11 days), the MIC was 939 µM (≈ 246 µg/mL). The MIC in the data set on M. kansasii CIT11/06 (CIT11/06, 120 h) came to 469 µM (≈ 123 µg/mL).
Take `O=C(c1ccc2ccccc2c1)N1CCCC1` [Compound 22, 1-(2-Naphthoyl)pyrrolidine]: the MIC was determined as 554 µM (≈ 125 µg/mL) in data set [1]; 111 µM (≈ 25 µg/mL) in data set [2] (ATCC19698, 11 days); 111 µM (≈ 25 µg/mL) in the data set with M. kansasii CIT11/06 (120 h, CIT11/06, 5 days). Also, the “lethal effect on THP-1 cells” value in data set [4] is given as “did not lead to the 100% lethal effect”. For the same compound, the LD50 in data set [4] is reported as greater than 100 µmol/L.
Consider `COc1ccccc1NC(=O)c1ccc2ccccc2c1` [Compound 32a, N-(2-Methoxyphenyl)-2-naphthamide], for which the melting point stood at 82 °C. The compound further yielded an IC50 in data set [3] of 763 µM. Also, the MIC in data set [1] (CIT19/06, 5 days) was 451 µM (≈ 125 µg/mL). The MIC in data set [2] (ATCC19698, 11 days) came to 216 µM (≈ 59.9 µg/mL). Further, the MIC in the data set with M. kansasii CIT11/06 (120 h, CIT11/06, 5 days) amounted to 451 µM (≈ 125 µg/mL).
In the case of `COc1cccc(NC(=O)c2ccc3ccccc3c2)c1` [Compound 32b, N-(3-Methoxyphenyl)-2-naphthamide], the melting point was found to be 142 °C. In data set [3], this compound had a concentration for half-maximal inhibition (IC50) of 306 µM.
For `O=C(Nc1cccc(Cl)c1)c1ccc2ccccc2c1` [Compound 35b, N-(3-Chlorophenyl)-2-naphthamide] the same measures were 180 °C and 81 µM.
In turn, `O=C(Nc1cccc(Br)c1)c1ccc2ccccc2c1` [Compound 36b, N-(3-Bromophenyl)-2-naphthamide] returned a melting point of 193 °C. Moreover, in data set [3], the midpoint of inhibition, the IC50, lay at 103 µM.
For `O=C(Nc1cccc(C(F)(F)F)c1)c1ccc2ccccc2c1` [Compound 37b, N-(3-Trifluoromethylphenyl)-2-naphthamide], in that order: 150 °C and 309 µM.
For `O=C(Nc1cccc([N+](=O)[O-])c1)c1ccc2ccccc2c1` [Compound 38b, N-(3-Nitrophenyl)-2-naphthamide], in that order: 177 °C and 633 µM.
In turn, `O=C(Nc1ccc([N+](=O)[O-])cc1)c1ccc2ccccc2c1` [Compound 38c, N-(4-Nitrophenyl)-2-naphthamide] registered a melting point of 200 °C. In addition, the IC50 in data set [3] was 260 µM.
For the compound `NNC(=O)c1ccncc1` [INH, isoniazid, reference compound], the MIC in data set [1] (CIT19/06, 5 days) was less than 72.9 µM; in data set [2], greater than 729 µM; with M. kansasii CIT11/06 (120 h, CIT11/06, 5 days) it was less than 72.9 µM.
Take `NC(=O)c1cnccn1` [PZA, pyrazinamide, reference compound]: the MIC in data set [1] was greater than 812 µM; in data set [2], greater than 812 µM; with M. kansasii CIT11/06 (CIT11/06, 120 h) it was greater than 812 µM.
On to `CC[C@@]1(O)C(=O)OCc2c1cc1n(c2=O)Cc2cc3ccccc3nc2-1` [camptothecin], for which the LD50 in data set [6] is 0.16 ± 0.07 µmol/L.

As usually defined, the melting point is the temperature of the solid-liquid transition. Broadly, the IC50 is the midpoint of a concentration-inhibition curve. Lower therefore signals greater potency.
